Counter-ions that a name gives are not always drawn.
Experiments:
EGFR = molecular target: T1, EGFR (Homo sapiens, UniProt P00533); assay: EGFR substrate phosphorylation assay (HTRF); format: biochemical; settings: Method (A): Enzyme Mix incubated with compound at 20° C. for 1 hr, reaction started by adding Substrate Mix
T1 construct: made in house; host or cells: baculovirus expression system
How it was run: (§1)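 Baculovirus-expressed kinase (0.8 nM EGFR or 10 nM ErbB2 in enzyme mix) with Peptide C 0.8 μM and ATP 20 μM (substrate-mix levels), MOPS pH 7.5, MnCl2; 90 min, 20 °C, HTRF anti-phosphotyrosine. Method A adds 1 h enzyme–compound preincubation; B none. pIC50, final compound 0.00027–47.6 μM.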

ErbB2 = molecular target: T2, ErbB2 (Homo sapiens, UniProt P04626); assay: ErbB-2 substrate phosphorylation assay (HTRF); format: biochemical; settings: Method (A): Enzyme Mix incubated with compound at 20° C. for 1 hr, reaction started by adding Substrate Mix
T2 construct: made in house; host or cells: baculovirus expression system
T2 sequence (P04626 23-1255): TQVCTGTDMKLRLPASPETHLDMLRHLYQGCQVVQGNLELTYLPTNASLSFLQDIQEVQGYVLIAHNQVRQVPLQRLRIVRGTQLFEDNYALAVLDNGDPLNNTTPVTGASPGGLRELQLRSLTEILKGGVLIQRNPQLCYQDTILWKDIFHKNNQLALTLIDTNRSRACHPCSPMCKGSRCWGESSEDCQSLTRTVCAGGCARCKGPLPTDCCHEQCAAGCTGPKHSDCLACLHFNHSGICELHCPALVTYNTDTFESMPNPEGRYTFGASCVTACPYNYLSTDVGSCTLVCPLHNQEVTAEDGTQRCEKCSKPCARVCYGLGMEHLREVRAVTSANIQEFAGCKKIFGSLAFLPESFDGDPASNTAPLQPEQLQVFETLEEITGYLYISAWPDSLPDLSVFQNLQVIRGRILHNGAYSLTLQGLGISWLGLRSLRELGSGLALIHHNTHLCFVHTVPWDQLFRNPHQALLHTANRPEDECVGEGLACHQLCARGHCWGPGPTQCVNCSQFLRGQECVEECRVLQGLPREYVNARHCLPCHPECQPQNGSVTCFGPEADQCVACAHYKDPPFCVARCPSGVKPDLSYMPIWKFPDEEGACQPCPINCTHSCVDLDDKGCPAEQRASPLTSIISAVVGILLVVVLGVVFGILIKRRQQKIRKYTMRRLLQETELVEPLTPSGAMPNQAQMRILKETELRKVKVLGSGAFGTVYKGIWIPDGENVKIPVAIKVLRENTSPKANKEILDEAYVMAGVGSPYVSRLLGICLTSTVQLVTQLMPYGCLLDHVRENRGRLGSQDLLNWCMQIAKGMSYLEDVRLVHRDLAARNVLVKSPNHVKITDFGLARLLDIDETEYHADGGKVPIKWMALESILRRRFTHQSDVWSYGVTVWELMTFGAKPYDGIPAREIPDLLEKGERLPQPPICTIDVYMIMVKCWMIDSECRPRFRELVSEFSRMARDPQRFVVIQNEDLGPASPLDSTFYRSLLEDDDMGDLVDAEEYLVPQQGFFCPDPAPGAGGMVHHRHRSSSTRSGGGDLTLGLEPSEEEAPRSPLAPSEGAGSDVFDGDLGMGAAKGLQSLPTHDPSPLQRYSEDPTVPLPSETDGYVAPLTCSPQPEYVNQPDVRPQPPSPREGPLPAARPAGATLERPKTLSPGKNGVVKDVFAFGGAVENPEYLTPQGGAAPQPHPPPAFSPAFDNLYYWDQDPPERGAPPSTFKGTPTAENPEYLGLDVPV
How it was run: as §1

HN5 tumor cells = assay: Method C: Cell Growth Inhibition Assay (CellTiter-Glo), HN5; format: cell-based; settings: Homo sapiens, 72 h, 3 days, 4-parameter fit
Description: (§2) Human breast tumor cells (BT474) were cultured in RPMI (Mediatech 50-011-PB), containing 10% FBS (JRH Biosciences 12176) and 1% penicillin-streptomycin (Invitrogen 15140). Human head and neck tumor cells (HN5) were cultured in high glucose DMEM (Mediatech 50-013-PB) containing 10% FBS and 1% penicillin-streptomycin. Human colon tumor cells (Colo205) were cultured in RPMI (Mediatech 50-020-PB) containing 10% FBS and 1% penicillin-streptomycin. Human melanoma cancer cells (SK-MEL-28) were cultured in EMEM with nonessential amino acids (Mediatech 50-011-PB) containing 10% FBS, 1% sodium pyruvate (JT Baker 3354-04), and 1% penicillin-streptomycin. Human melanoma cancer cells (A375P F11s) were cultured in RPMI (Mediatech 50-020-PB) containing 10% FBS, 1% sodium pyruvate, and 1% penicillin-streptomycin. Human colon cancer cells (HT-29) were cultured in high glucose DMEM (Mediatech 50-013-PB) containing 10% FBS and 1% penicillin-streptomycin. Human melanoma cancer cells (SK-MEL-3) were cultured in McCoy's 5A (50-025-PB) containing 15% FBS, and 1% penicillin-streptomycin. All cell lines were maintained at 37° C. in a humidified 5% CO2, 95% air incubator. Cells were harvested using trypsin/EDTA (Invitrogen 25200), counted using an haemocytometer, and plated. For 96-well assays (using white full-area NUNC plates cat. #136102), cells were plated in 105 μL at the following densities (cells/well): HN5, 500; Colo205, 500; SK-MEL-28, 500; A375P-F11s, 500; HT-29, 500; SK-MEL-3, 500; and BT474, 3000. For 384-well assays (white full-area NUNC plates, cat. #781080), cells were plated in 48 μL at the following densities (cells/well): HN5, 500; Colo205, 500; SK-MEL-28, 500; A375P-F11s, 500; HT29, 500; SK-MEL-3, 500; and BT474, 2000.
(§3) The next day, compounds were diluted as follow: For 96-well assays, 13.5 μL of compound in DMSO were diluted using nine (9) serial 1:3 dilutions of 4.5 μL in 9 μL of DMSO. Medium (270 μl/well of RPMI with 10% FBS and 1% penicillin-streptomycin) was added to the plates. Aliquots (7 μl) were added to cells in the final assay giving a final DMSO concentration of 0.2%. For 384-well assays, 15 μL of compound in DMSO were diluted using nine (9) serial 1:3 dilutions of 5 μL in 10 μL of DMSO, followed by a further dilution of 5 μL of compound with 95 μL of medium, of which 2 μL were added to cells in the final assay giving a final DMSO concentration of 0.2%. Cells were incubated at 37° C., 5% CO2 for 3 days.
(§4) Total ATP was measured (as a surrogate estimate of cell number) using CellTiter-Glo® reagent (Promega G7571). Briefly, plates were removed from the incubator and allowed to equilibrate to room temperature for 30 minutes. CellTiter-Glo® (25 μL or 55 μL for 384-well or 96-well assays, respectively) reagent was added to each well and plates were shaken on an orbital plate shaker for 2 mins. Plates were incubated without shaking for a further 30 mins and read on an LJL Analyst GT reader in luminometer mode with an integration time of 0.5 seconds per well. Percent inhibition of cell growth was calculated relative to DMSO vehicle-treated control wells. Concentration of compound required to give 50% inhibition of vehicle-treated control cell growth (IC50) was interpolated using a 4-parameter fit for determining IC50 using the following equation: Y=A+((B−A)/(1+((C/X)̂D))) where X=IC50.

BT474 tumor cells = assay: Method C: Cell Growth Inhibition Assay (CellTiter-Glo), BT474; format: cell-based; settings: Homo sapiens, BT-474, 72 h, 3 days, 4-parameter fit
Colo205 tumor cells = assay: Method C: Cell Growth Inhibition Assay (CellTiter-Glo), Colo205; format: cell-based; settings: Homo sapiens, COLO 205, 72 h, 3 days, 4-parameter fit
How it was run: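 Cells plated at 500 cells/well, dosed next day with 10-point 1:3 dilution series (0.2% final DMSO) and grown 3 days at 37 °C, 5% CO2. CellTiter-Glo luminescence (total ATP) served as cell-number surrogate; inhibition relative to DMSO controls, IC50 interpolated by 4-parameter fit.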

SK-MEL-28 tumor cells = assay: Method C: Cell Growth Inhibition Assay (CellTiter-Glo), SK-MEL-28; format: cell-based; settings: Homo sapiens, SK-MEL-28, 72 h, 3 days, 4-parameter fit
How it was run: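 Growth inhibition is expressed as the concentration giving 50% inhibition relative to vehicle controls, derived from a 4-parameter fit. Tumor cells plated at 500 per well were exposed for 3 days to compound (0.2% DMSO) before total ATP was quantified by CellTiter-Glo.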

A375P F11s tumor cells = assay: Method C: Cell Growth Inhibition Assay (CellTiter-Glo), A375P F11s; format: cell-based; settings: Homo sapiens, 72 h, 3 days, 4-parameter fit
Description: as §2, §3, §4

HT-29 tumor cells = assay: Method C: Cell Growth Inhibition Assay (CellTiter-Glo), HT-29; format: cell-based; settings: Homo sapiens, HT-29, 72 h, 3 days, 4-parameter fit
Description: as §2, §3, §4

SK-MEL-3 tumor cells = assay: Method C: Cell Growth Inhibition Assay (CellTiter-Glo), SK-MEL-3; format: cell-based; settings: Homo sapiens, SK-MEL3, 72 h, 3 days, 4-parameter fit
Description: as §2, §3, §4

T1 sequence (P00533 25-1210): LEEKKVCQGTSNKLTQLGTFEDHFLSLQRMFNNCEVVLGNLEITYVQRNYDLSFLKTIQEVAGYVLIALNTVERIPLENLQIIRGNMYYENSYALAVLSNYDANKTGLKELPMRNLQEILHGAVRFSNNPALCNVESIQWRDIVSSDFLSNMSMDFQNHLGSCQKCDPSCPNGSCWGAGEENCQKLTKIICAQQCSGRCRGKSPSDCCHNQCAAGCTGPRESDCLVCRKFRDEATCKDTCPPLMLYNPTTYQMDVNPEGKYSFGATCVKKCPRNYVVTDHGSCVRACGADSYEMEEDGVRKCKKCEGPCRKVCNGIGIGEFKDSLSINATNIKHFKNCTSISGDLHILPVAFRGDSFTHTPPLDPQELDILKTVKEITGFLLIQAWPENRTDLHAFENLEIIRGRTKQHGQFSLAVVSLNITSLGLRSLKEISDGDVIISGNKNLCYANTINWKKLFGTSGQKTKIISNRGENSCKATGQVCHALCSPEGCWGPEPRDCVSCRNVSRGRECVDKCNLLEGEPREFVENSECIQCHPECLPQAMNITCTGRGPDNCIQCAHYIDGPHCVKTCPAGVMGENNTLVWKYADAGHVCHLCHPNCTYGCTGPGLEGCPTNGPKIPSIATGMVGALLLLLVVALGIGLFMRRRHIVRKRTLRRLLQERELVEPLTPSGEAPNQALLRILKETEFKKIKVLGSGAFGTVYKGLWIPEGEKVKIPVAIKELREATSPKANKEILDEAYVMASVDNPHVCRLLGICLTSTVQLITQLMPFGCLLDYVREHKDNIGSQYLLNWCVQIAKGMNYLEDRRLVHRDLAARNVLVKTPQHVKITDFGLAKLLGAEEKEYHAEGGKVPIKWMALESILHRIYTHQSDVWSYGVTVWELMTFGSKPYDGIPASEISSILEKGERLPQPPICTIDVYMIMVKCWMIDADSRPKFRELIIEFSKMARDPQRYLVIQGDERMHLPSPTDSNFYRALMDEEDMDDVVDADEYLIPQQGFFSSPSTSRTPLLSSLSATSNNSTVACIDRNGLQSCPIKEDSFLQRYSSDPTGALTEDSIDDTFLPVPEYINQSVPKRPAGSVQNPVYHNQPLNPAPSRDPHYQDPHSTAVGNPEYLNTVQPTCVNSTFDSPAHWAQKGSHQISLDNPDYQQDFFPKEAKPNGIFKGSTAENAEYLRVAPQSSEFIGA

IC50 (EGFR) [µM]	IC50 (ErbB2) [µM]	IC50 (HN5 tumor cells) [µM]	IC50 (BT474 tumor cells) [µM]	IC50 (Colo205 tumor cells) [µM]	IC50 (SK-MEL-28 tumor cells) [µM]	IC50 (A375P F11s tumor cells) [µM]	IC50 (HT-29 tumor cells) [µM]	IC50 (SK-MEL-3 tumor cells) [µM]	Structure (SMILES)
< 0.1	< 0.1	< 0.1	< 0.1	< 0.1	0.1 to 1	0.1 to 1	0.1 to 1	0.1 to 1	COc1ccc(Nc2nccc(-c3sc(N)nc3-c3cccc(NC(=O)c4c(F)cccc4F)c3)n2)cc1OCCN(C)C [Example 2]
< 0.1	< 0.1	0.1 to 1	0.1 to 1	0.1 to 1	0.1 to 1	0.1 to 1	0.1 to 1	0.1 to 1	CN(C)CCOc1ccc(Nc2nccc(-c3sc(NCCCN4CCOCC4)nc3-c3cccc(NC(=O)c4c(F)cccc4F)c3)n2)cc1Cl [Example 4, N-[3-(5-{2-[(3-Chloro-4-{[2-(dimethylamino)ethyl]oxy}phenyl)-amino]-4-pyrimidinyl}-2-{[3-(4-morpholinyl)propyl]amino}-1,3-thiazol-44)phenyl]-2,6-difluorobenzamide]
< 0.1	< 0.1	< 0.1	< 0.1	0.1 to 1	0.1 to 1	0.1 to 1	0.1 to 1	0.1 to 1	CN(C)CCOc1ccc(Nc2nccc(-c3sc(N)nc3-c3cccc(NC(=O)c4c(F)cccc4F)c3)n2)cc1Cl [Example 5, N-(3-{2-Amino-5-[2-({3-chloro-4-[2-(dimethylamino)ethoxy]-phenyl}amino)pyrimidin-4-yl]-1,3-thiazol-4-yl}phenyl)-2,6-difluorobenzamide-formic acid]
< 0.1	< 0.1	< 0.1	< 0.1	0.1 to 1	0.1 to 1	0.1 to 1	0.1 to 1	0.1 to 1	CN1CCc2ccc(Nc3nccc(-c4sc(N)nc4-c4cccc(NC(=O)c5c(F)cccc5F)c4)n3)cc2C1 [Example 10, trifluoroacetate]
< 0.1	< 0.1	< 0.1	< 0.1	0.1 to 1	< 0.1	0.1 to 1	0.1 to 1	0.1 to 1	COc1ccc(Nc2nccc(-c3sc(N)nc3-c3cccc(NC(=O)c4c(F)cccc4F)c3)n2)cc1N1CCN(C)CC1 [Example 11, N-{3-[2-Amino-5-(2-{[4-(methyloxy)-3-(4-methyl-1-piperazinyl)phenyl]amino}-4-pyrimidinyl)-1,3-thiazol-4-yl]phenyl}-2,6-difluorobenzamide trifluoroacetate]
< 0.1	< 0.1	< 0.1	< 0.1	0.1 to 1	> 1	0.1 to 1	0.1 to 1	0.1 to 1	CN(C)C1Cc2ccc(Nc3nccc(-c4sc(N)nc4-c4cccc(NC(=O)c5c(F)cccc5F)c4)n3)cc2C1 (stereo not drawn) [Example 12, N-{3-[2-Amino-5-(2-{[2-(dimethylamino)-2,3-dihydro-1H-indeN-5-yl]amino}-4-pyrimidinyl)-1,3-thiazol-4-yl]phenyl}-2,6-difluorobenzamide]
< 0.1	< 0.1	< 0.1	< 0.1	0.1 to 1	> 1	0.1 to 1	0.1 to 1	0.1 to 1	Nc1nc(-c2cccc(NC(=O)c3c(F)cccc3F)c2)c(-c2ccnc(Nc3cccc(CN4CCCC4)c3)n2)s1 [Example 13, N-{3-[2-Amino-5-(2-{[3-(1-pyrrolidinylmethyl)phenyl]amino}-4-pyrimidinyl)-1,3-thiazol-4-yl]phenyl}-2,6-difluorobenzamide]
< 0.1	< 0.1	< 0.1	< 0.1	0.1 to 1	> 1	0.1 to 1	0.1 to 1	> 1	CCN(CC)CCOc1cccc(Nc2nccc(-c3sc(N)nc3-c3cccc(NC(=O)c4c(F)cccc4F)c3)n2)c1 [Example 17, N-(3-{2-Amino-5-[2-({3-[2-(diethylamino)ethoxy]phenyl}amino)pyrimidiN-4-yl]-1,3-thiazol-4-yl}phenyl)-2,6-difluorobenzamide]
< 0.1	< 0.1	< 0.1	< 0.1	0.1 to 1	0.1 to 1	0.1 to 1	0.1 to 1	0.1 to 1	CN(C)CCOc1cccc(Nc2nccc(-c3sc(N)nc3-c3cccc(NC(=O)c4c(F)cccc4F)c3)n2)c1 [Example 22, N-[3-(2-Amino-5-{2-[(3-{[2-(dimethylamino)ethyl]oxy}phenyl)amino]-4-pyrimidinyl}-1,3-thiazol-4-yl)phenyl]-2,6-difluorobenzamide]
< 0.1	< 0.1	< 0.1	< 0.1	0.1 to 1	> 1	0.1 to 1	0.1 to 1	0.1 to 1	CNc1nc(-c2cccc(NC(=O)c3c(F)cccc3F)c2)c(-c2ccnc(Nc3cccc(CN4CCCC4)c3)n2)s1 [Example 23, 2,6-Difluoro-N-{3-[2-(methylamino)-5-(2-{[3-(1-pyrrolidinylmethyl)phenyl]amino}-4-pyrimidinyl)-1,3-thiazol-4-yl]phenyl}benzamide]
< 0.1	< 0.1		0.1 to 1	0.1 to 1	> 1	0.1 to 1	0.1 to 1	> 1	CN(C)CCOc1cccc(Nc2nccc(-c3sc(N4CCCCC4)nc3-c3cccc(NC(=O)c4c(F)cccc4F)c3)n2)c1 [Example 74, N-{3-[5-{2-[(3-{[2-(Dimethylamino)ethyl]oxy}phenyl)amino]-4-pyrimidinyl}-2-(1-piperidinyl)-1,3-thiazol-4-yl]phenyl}-2,6-difluorobenzamide]
		0.1 to 1	0.1 to 1	> 1	> 1	> 1	> 1	> 1	CCc1nc(-c2cccc(NC(=O)c3c(F)cccc3F)c2)c(-c2ccnc(Nc3ccc(N4CCOCC4)nc3)n2)s1 [Example 118, N-{3-[2-Ethyl-5-(2-{[6-(4-morpholinyl)-3-pyridinyl]amino}-4-pyrimidinyl)-1,3-thiazol-4-yl]phenyl}-2,6-difluorobenzamide trifluoroacetate]
